Measurements: ChEMBL document CHEMBL1150605, “Isolation of a new mycalolide from the marine sponge Mycale izuensis” (J Nat Prod, 2002)
Converted amounts (≈) assume the structure as drawn.

System: HeLa
Assay: Cytotoxicity against human HeLa cells
Format: functional, cell-based

CO[C@H]1C/C=C/c2nc(co2)-c2nc(co2)-c2nc(co2)[C@@H](OC)[C@@H](C)C(=O)/C=C/C[C@H](O)CC(=O)O[C@@H](C[C@H](OC)[C@@H](C)CC[C@@H](O)[C@@H](C)[C@H](O)[C@H](C)/C=C/N(C)C=O)[C@@H]1C [30,32-DIHYDROXYMYCALOLIDE A]
IC50: 2.6 ng/mL (≈ 2.99 nM)
